Target: T1, human Y4 receptor (Homo sapiens, UniProt P50391)
T1 construct: expressed in transfected cells
Assay: NPY4 cAMP HTRF Agonist Assay (inhibitory cAMP assay, Gi activation by Y4 agonism)
Assay type: cell-based
Details: TABLE 2, R2 is Phenyl-CN; read-out: hY4 CAMP EC50
Summary of the method: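 Y4 agonism read as lowered forskolin-stimulated cAMP (HTRF, 1 h detection at room temperature). Stable human Y4 CHO clone, 5000 cells/well, incubated 30 min at room temperature with compounds plus forskolin and IBMX in PBS.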

T1 sequence (P50391 whole entry): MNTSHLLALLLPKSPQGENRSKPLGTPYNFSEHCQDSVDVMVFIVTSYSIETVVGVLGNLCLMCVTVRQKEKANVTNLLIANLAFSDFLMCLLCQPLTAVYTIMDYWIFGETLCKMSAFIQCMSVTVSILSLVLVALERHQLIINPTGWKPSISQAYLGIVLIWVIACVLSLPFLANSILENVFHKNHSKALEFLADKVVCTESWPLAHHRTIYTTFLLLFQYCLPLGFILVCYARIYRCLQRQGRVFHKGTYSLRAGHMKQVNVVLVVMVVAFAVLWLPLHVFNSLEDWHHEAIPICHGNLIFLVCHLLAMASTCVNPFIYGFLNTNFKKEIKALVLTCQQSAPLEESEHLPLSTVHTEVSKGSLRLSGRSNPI

Row | EC50 | SMILES
1 | 22 nM | N#Cc1ccc(N2CCC[C@H](N[C@@H]3CCCC[C@H]3Nc3cc(-c4cccc5[nH]ncc45)ccn3)C2)cc1 [Example 211]
2 | 559 nM | N#Cc1ccc(N2CCC[C@H](N[C@@H]3CCCC[C@H]3Nc3cc(-c4cccc(Cl)c4)ccn3)C2)cc1 [Example 250]
3 | 381 nM | CS(=O)(=O)c1cccc(-c2ccnc(N[C@@H]3CCCC[C@H]3N[C@H]3CCCN(c4ccc(C#N)cc4)C3)c2)c1 [Example 254]
4 | 46 nM | COc1ccc(-c2ccnc(N[C@@H]3CCCC[C@H]3N[C@H]3CCCN(c4ccc(C#N)cc4)C3)c2)cn1 [Example 222]

Same assay, conditions: TABLE 4, R2 is Pyridinyl-CN; read-out: hY4 CAMP EC50

Row | EC50 | SMILES
5 | 9 nM | N#Cc1cc(N2CCC[C@H](N[C@@H]3CCCC[C@H]3Nc3ncc(-c4ccccc4OC(F)(F)F)o3)C2)ccn1 [Example 311]
6 | 135 nM | N#Cc1ccc(N2CCC[C@H](N[C@@H]3CCCC[C@H]3Nc3nccc(-c4ccccc4)n3)C2)cn1 [Example 308]
7 | 141 nM | C[C@]1(N[C@@H]2CCCC[C@H]2Nc2cc(-c3cccc(C(N)=O)c3)ccn2)CCCN(c2ccc(C#N)nc2)C1 [Example 306]
8 | 7 nM | N#Cc1ccc(N2CCC[C@H](N[C@@H]3CCCC[C@H]3Nc3ncc(-c4cccc(C(N)=O)c4)o3)C2)cn1 [Example 305]
9 | 105 nM | CC(C)(O)c1cccc(-c2ccnc(N[C@@H]3CCCC[C@H]3N[C@H]3CCCN(c4ccc(C#N)nc4)C3)c2)c1 [Example 317]

Same assay, conditions: TABLE 7, R2 is Pyridinyl-oxadiazole-CH3; read-out: hY4 CAMP EC50

Row | EC50 | SMILES
10 | 1 nM | COC(=O)Nc1cccc(-c2cnc(N[C@@H]3CCCC[C@H]3N[C@H]3CCCN(c4ccc(-c5noc(C)n5)nc4)C3)o2)c1 [Example 382]
11 | 78 nM | Cc1nc(-c2ccc(N3CCC[C@H](N[C@@H]4CCCC[C@H]4Nc4ncc(-c5cccc(C(=O)NC6CC6)c5)o4)C3)cn2)no1 [Example 387]
12 | 5 nM | Cc1nc(-c2ccc(N3CCC[C@H](N[C@@H]4CCCC[C@H]4Nc4nccc(-c5ccccc5)n4)C3)cn2)no1 [Example 395]
13 | 9 nM | CNC(=O)c1cccc(-c2cnc(N[C@@H]3CCCC[C@H]3N[C@H]3CCCN(c4ccc(-c5noc(C)n5)nc4)C3)o2)c1 [Example 385]

Same assay, conditions: human Y4 receptor, cAMP; read-out: hY4 CAMP EC50

Row | EC50 | SMILES
14 | 4 nM | Cc1nc(-c2ccc(N3CCC[C@H](N[C@@H]4CCCC[C@H]4Nc4cc(-c5cccc(C(N)=O)c5)ccn4)C3)cn2)no1 [Example 378]
15 | 142 nM | C[C@]1(N[C@@H]2CCCC[C@H]2Nc2cc(-c3cccc(C(N)=O)c3)ccn2)CCCN(c2cnc(C(F)(F)F)cn2)C1 [Example 474]
16 | 4 nM | COC(=O)Nc1cccc(-c2cnc(N[C@@H]3CCCC[C@H]3N[C@H]3CCCN(c4ccc5ncnn5c4)C3)o2)c1 [Example 483]
17 | 15 nM | NC(=O)c1cccc(-c2ccnc(N[C@@H]3CCCC[C@H]3N[C@H]3CCCN(c4ccc(-c5ncon5)cc4)C3)c2)c1 [Example 376]
18 | 699 nM | CC(C)(C)OC(=O)Nc1cccc(-c2cnc(N[C@@H]3CCCC[C@H]3N[C@H]3CCCN(c4ccc5ncnn5c4)C3)o2)c1 [Example 488]
19 | 0.2 nM | Cc1nc(-c2ccc(N3CCC[C@H](N[C@@H]4CCCC[C@H]4Nc4cc(-c5cccc(C(N)=O)c5)ccn4)C3)cc2)no1 [Example 347]
20 | 448 nM | Cc1nc(-c2ccc(N3C[C@@H]4C[C@H](N[C@@H]5CCCC[C@H]5Nc5ncc(-c6ccc(OC(F)(F)F)cc6)o5)[C@H]3C4)cc2)no1 [Example 351]
21 | 35 nM | N#Cc1cnc(N2CCCC(N[C@@H]3CCCC[C@H]3Nc3ncc(-c4cccc(C(N)=O)c4)o3)C2)nc1 (stereo partly shown) [Example 437]
22 | 3 nM | CCOC(=O)Nc1cccc(-c2cnc(N[C@@H]3CCCC[C@H]3N[C@H]3CCCN(c4ccc(-c5noc(C)n5)cc4)C3)o2)c1 [Example 340]
23 | 578 nM | N#Cc1cc(N2C[C@@H]3C[C@H](N[C@@H]4CCCC[C@H]4Nc4ncc(-c5cccc(C(N)=O)c5)o4)[C@H]2C3)ncn1 [Example 439]
24 | 3 nM | NC(=O)c1cccc(-c2cnc(N[C@@H]3CCCC[C@H]3N[C@H]3CCCN(c4ccc(-c5noc(C6CC6)n5)cn4)C3)o2)c1 [Example 452]
25 | 38 nM | Cc1nc2ccc(N3CCC[C@H](N[C@@H]4CCCC[C@H]4Nc4ncc(-c5ccc(F)c(F)c5)o4)C3)cn2n1 [Example 492]
26 | 8 nM | Cc1nc(-c2ccc(N3CCC[C@H](N[C@@H]4CCCC[C@H]4Nc4cc(-c5ccc(F)c(F)c5)ccn4)C3)cc2)no1 [Example 342]

Same assay, conditions: human Y4 stable CHO clonal cells, forskolin + IBMX; read-out: NPY4 cAMP HTRF Agonist Assay EC50

Row | EC50 | SMILES
27 | 0.8 nM | O=C(NC1CC1)c1cccc(-c2cnc(N[C@@H]3CCCC[C@H]3N[C@H]3CCCN(c4ccc(C(F)(F)F)nc4)C3)o2)c1 [Example 99, N-cyclopropyl-(3-(2-((1R,2R)-2((S)-1-(6-trifluoromethyl)pyridin-3yl)piperidin-3-ylamino)cyclohexylamino)oxazol-5-yl)benzamide]
28 | 322 nM | N#Cc1ccc(N2CCC[C@H](N[C@@H]3CCCC[C@H]3Nc3cc(-c4cc[nH]n4)ccn3)C2)cc1 [Example 33, 4-((S)-3-((1R,2R)-2-(4-(1H-Pyrazol-3-yl)pyridin-2-ylamino)cyclohexylamino)piperidin-1-yl)benzonitrile tris-trifluoroacetate]
29 | 548 nM | N#Cc1ccc(N2CCC[C@H](N[C@@H]3CCCC[C@H]3Nc3ncc(-c4ccccc4)o3)C2)c(F)c1 [Example 51, 3-Fluoro-4-((S)-3-((1R,2R)-2-(5-phenyloxazol-2-ylamino)cyclohexylamino)piperidin-1-yl)benzonitrile]
30 | 11 nM | COc1ccc(-c2cnc(N[C@@H]3CCCC[C@H]3N[C@H]3CCCN(c4ccc([N+](=O)[O-])cc4)C3)o2)c(F)c1 [Example 21, (1R,2R)—N1-(5-(2-fluoro-4-methoxyphenyl)oxazol-2-yl)-N2-((S)-1-(4-nitrophenyl)piperidin-3-yl)cyclohexane-1,2-diamine]
31 | 0.2 nM | NC(=O)c1cccc(-c2cnc(N[C@@H]3CCCC[C@H]3N[C@H]3CCCN(c4ccc(C(F)(F)F)cc4)C3)o2)c1 [Example 104, (3-(2-((1R,2R)-2((S)-1-(4-trifluoromethyl)phenyl)piperidin-3-ylamino)cyclohexylamino)oxazol-5-yl)benzamide]
32 | 262 nM | N#Cc1ccc(N2CCC[C@H](N[C@@H]3CCCC[C@H]3Nc3cc(-c4cccc(F)c4)ccn3)C2)cc1 [Example 36, 4-((S)-3-((1R,2R)-2-(4-(3-Fluorophenyl)pyridin-2-ylamino)cyclohexylamino)piperidin-1-yl)benzonitrile tris-trifluoroacetate]
33 | 590 nM | O=C(Nc1nncs1)c1ccnc(N[C@@H]2CCCC[C@H]2N[C@H]2CCCN(c3ccc(C(F)(F)F)cc3)C2)c1 [Example 112]
34 | 43 nM | O=[N+]([O-])c1ccc(N2CCC[C@H](N[C@@H]3CCCC[C@H]3Nc3ncc(-c4cccc(OC(F)(F)F)c4)o3)C2)cc1 [Example 22, (1R,2R)—N1-((S)-1-(4-Nitrophenyl)piperidin-3-yl)-N2-(5-(3-(trifluoromethoxy)phenyl)oxazol-2-yl)cyclohexane-1,2-diamine]
35 | 10 nM | N#Cc1ccc(N2C[C@@H]3CC(N[C@@H]4CCCC[C@H]4Nc4ncc(-c5ccc(OC(F)(F)F)cc5)o4)[C@H]2C3)cc1 (stereo partly drawn) [Example 95, 4-((1R,4R)-6-((1R,2R)-2-(5-(4-(Trifluoromethoxy)phenyl)oxazol-2-ylamino)cyclohexylamino)-2-azabicyclo[2.2.1]heptan-2-yl)benzonitrile]
36 | 185 nM | FC(F)(F)Oc1ccc(-c2cnc(N[C@@H]3CCCC[C@H]3N[C@H]3CCCN(c4ccc(OC(F)(F)F)cc4)C3)o2)cc1 [Example 87, (1R,2R)—N1-(5-(4-(Trifluoromethoxy)phenyl)oxazol-2-yl)-N2-((S)-1-(4-(trifluoromethoxy)phenyl)piperidin-3-yl)cyclohexane-1,2-diamine]

Same assay, conditions: second TABLE 1, R2 is Phenyl-CF3; read-out: hY4 CAMP EC50

Row | EC50 | SMILES
37 | 764 nM | CCOC(=O)c1cnc(N[C@@H]2CCCC[C@H]2N[C@H]2CCCN(c3ccc(C(F)(F)F)cc3)C2)o1 [Example 184, ethyl 2-(((1R,2R)-2-(((S)-1-(4-(trifluoromethyl)phenyl)piperidin-3-yl)amino)cyclohexyl)amino)oxazole-5-carboxylate]
38 | 32 nM | CC(C)(C)OC(=O)Nc1cccc(-c2cnc(N[C@@H]3CCCC[C@H]3N[C@H]3CCCN(c4ccc(C(F)(F)F)cc4)C3)o2)c1 [Example 169]
39 | 284 nM | N#Cc1ccc(N[C@@H]2CCCC[C@H]2N[C@H]2CCCN(c3ccc(C(F)(F)F)cc3)C2)nc1 [Example 192]
40 | 67 nM | FC(F)(F)c1ccc(N2CCC[C@H](N[C@@H]3CCCC[C@H]3Nc3cc(-c4cc[nH]c4)ccn3)C2)cc1 [Example 198]
41 | 194 nM | FC(F)(F)c1ccc(N2CCC[C@H](N[C@@H]3CCCC[C@H]3Nc3cc(-c4ccc5scnc5c4)ccn3)C2)cc1 [Example 157]
42 | 809 nM | FC(F)(F)c1ccc(N2CCC[C@H](N[C@@H]3CCCC[C@H]3Nc3ncc(Cl)cn3)C2)cc1 [Example 196]
43 | 227 nM | CC(C)(C)NC(=O)c1cccc(-c2ccnc(N[C@@H]3CCCC[C@H]3N[C@H]3CCCN(c4ccc(C(F)(F)F)cc4)C3)c2)c1 [Example 128]
44 | 51 nM | FC(F)(F)c1ccc(N2CCC[C@H](N[C@@H]3CCCC[C@H]3Nc3cc(-n4cccc4)ccn3)C2)cc1 [Example 190]
45 | 41 nM | OCc1cccc(-c2ccnc(N[C@@H]3CCCC[C@H]3N[C@H]3CCCN(c4ccc(C(F)(F)F)cc4)C3)c2)c1 [Example 129]
46 | 53 nM | FC(F)(F)c1ccc(N2CCC[C@H](N[C@@H]3CCCC[C@H]3Nc3cc(-c4cccc(-n5cccn5)c4)ccn3)C2)cc1 [Example 158]
47 | 922 nM | FC(F)(F)Oc1ccc(-n2nnc(N[C@@H]3CCCC[C@H]3N[C@H]3CCCN(c4ccc(C(F)(F)F)cc4)C3)n2)cc1 [Example 121]
48 | 14 nM | C[C@@H](O)c1cccc(-c2ccnc(N[C@@H]3CCCC[C@H]3N[C@H]3CCCN(c4ccc(C(F)(F)F)cc4)C3)c2)c1 [Example 168]
49 | 104 nM | FC(F)(F)c1ccc(N2CCC[C@H](N[C@@H]3CCCC[C@H]3Nc3cc(-c4cccc(N5CCCC5)c4)ccn3)C2)cc1 [Example 164]

From patent publication US8815909B2, “Diaminocyclohexane compounds and uses thereof” (Bristol-Myers Squibb Company, priority 2011, dated 2014)
